In US9981042B2, “Carbon nanotube-based anti-cancer agent capable of suppressing drug resistance” (INDUSTRY-ACADEMIC COOPERATION FOUNDATION GYEONGSANG …, priority 2012, dated 2018):

Tests used:
A549 cells = test: MTT assay on lung cancer cells; format: cell-based; conditions: A549, 48 h, 0.086-1.38 μmol/L
Procedure: A549 cells (1×10^4 cells/well, CAT: CRL-1658, ATCC) were seeded in a 96-well plate and incubated with DMEM medium supplementing 10% FBS (fetal bovine serum). At this time, the culture was maintained under the condition of 5% of CO2 at 37° C. The cells were cultured for 24 h and mwCNT-COOH, EPI, EPI-EGF, EPI-mwCNT and EPI-EGF-mwCNT were treated to each well with ratios of 0.086, 0.172, 0.345, 0.69, 1.38 μmol/L, respectively and then further cultured for 48 h. And then, drug solutions were removed from the plate, 100 μl of MTT reagent (1 mg/ml, 3-(4,5-dimethylthiazol-2-yl)-2,5-diphenyltetrazolium bromide) was slowly added to each well, and incubated for 1 h at 37° C. Thereafter, 100 μl of DMSO solution per well was added, followed by measuring absorbance at 560 nm using a microplate reader (Model 680, Bio-Rad).
Then, the present inventors treated drugs containing doxorubicin (DOX-EGF, DOX-mwCNT-25, DOX-EGF-mwCNT) to the same lung cancer cell A549. All the condition except drugs were same.

[1] = Particle size by transmission electron microscope; conditions: in PBS
Mrp-1 = Mrp-1 mRNA expression by RT-PCR; format: cell-based; conditions: 100 ng/ml for 2 h; after 6 hours and later
Procedure: (§1) MDA-MB-231 breast cancer cells (4×10^5 cells/well) known to overexpress MRP1 were plated in a 6 well plate and 100 ng/ml of doxorubicin and DOX-mwCNT were treated to the cells for 2 h, respectively. Carbon nanotube as a control was treated with a concentration of 348 ng/ml for 2 h.
Two hours after treatment, culture mediums were replaced with DMEM medium supplemented with 10% FBS and not containing mwCNT, DOX, and DOX-mwCNT, and the cells were further incubated. Then RNA was isolated from cells after 2, 6, 12, 24, and 36 hours of incubation, respectively and then Mrp-1 mRNA level was analyzed. In this case, TRIZOL reagent (Invitrogen, USA) and chloroform were used for RNA isolation, then the isolated RNA was reacted with same volume of isopropanol for 2 h, quantified and subjected to RT-PCR (reverse transcriptase PCR).

MRP-1 protein = MRP-1 protein western blot; format: cell-based; conditions: 100 ng/ml for 2 h; 24 hours after the treatment
Procedure: as §1
To confirm the above result in protein level, the present inventors performed western bot analysis of the MRP-1 protein, there was a significant difference in protein expression of MRP-1 between doxorubicin- and DOX-mwCNT-25-treating groups (FIG. 30). […] Despite of previous studies reporting that Mdr-1 and Mrp-1 genes mediate drug resistance of MDA-MB-231, Mdr-1 was hardly detected in this experiment due to short drug exposure time (2 hours).

MDA-MB-231 cells = test: Efflux from cells (fluorescence microscopy); format: cell-based; conditions: 100 ng/ml for 2 h, then drug-free medium
Procedure: In addition, for efflux analysis, MDA-MB-231 cells (1×10^4 cells/well) cultivated in 24 well plate were treated with 100 ng/ml of DOX-mwCNT according to an embodiment of the present invention and doxorubicin, respectively. Two hours after the treatment, culture media was removed and the cells were washed three times with PBS and incubated with regular culture medium containing no anticancer agents for 24 h. Then the degree of efflux of doxorubicin from the cells was observed using a fluorescent microscope (FIG. 27). […] In the experiment, zero time (0 h) means a time when 2 hours has elapsed after removing doxorubicin and washing cells with PBS.

MDA-MB-231 tumor tissue = test: Histopathological observation (Haematoxylin-Eosin) of tumor tissues; format: in vivo, BALB/c nude mice; conditions: H&E; doxorubicin 0.5 and 5 mg/kg, DOX-mwCNT-25 0.5 mg/kg; versus control
Procedure: Then, the present inventors anesthetized the mice with ethyl ether, sacrificed them and collected tumor tissues therefrom. After measuring the weight of the collected tumor tissues, the tumor tissues were fixed for 24 hours in 10% formalin, washed with water and dehydrated and dipped in 70, 80, 90, 95 and 100% of ethanol, serially. The tissues were transparentized with xylene and embedded in paraffin. And then the embedded tissues were sliced at a thickness of 5 um, placed on glass slides.

MDA-MB-231 tumor = test: Tumor size and weight in MDA-MB-231 tumor model mice after tail vein injection; format: in vivo, BALB/c nude mice
Procedure: To prepare the animal tumor model, MDA-MB-231 cells were inoculated subcutaneously in the flank of female BALB/c nu/nu (athymic nude) mice (5×10^6 cells per mouse) When the tumor reached a mean volume of 100 mm^3 in the mice were used for the following Experimental Examples.
First, the tumor model mice prepared by transplanting MDA-MB-231 tumor cells to BALB/c nude mice were randomly divided into seven groups (n=10 per group) and injected with 200 μL of 0.5 mg/kg DOX, mwCNT, DOX-mwCNT in PBS, or pure PBS (negative control) in the tail vein. Subjects were weighed at 2, 9, and 16 days. Body weight and tumor sizes were measured twice a week for 21 days, and tumor volumes were calculated by the formula: V(volume)=X(length)×D(width)^2/2.
Twenty one day after the tail vein injection, the changes in tumor size of sacrificed animals were determined.
Furthermore, after the administration of the anticancer agent, tumor tissues taken from the sacrificed animals were weighed. In this case, in order to compare the significance of each group, Prism (GraphPad Software, Inc.) was used for statistical analysis with one-way ANOVA (analysis of variance) (** P<0.01, *** P<0.001).

[2] = tested on: late endosomes in MDA-MB-231 cells; test: High resolution imaging of doxorubicin and late endosome marker; format: cell-based; conditions: 24 h
Procedure: Furthermore, the present inventors performed a high resolution image analysis for 24 h in order to investigate the degradation of uptaken doxorubicin signal by co-staining doxorubicin and late endosome specific marker. […] Therefore, it was understood that late endosomes act as transporters of doxorubicin excreted from nucleus.

Row | Compound | viability compared to group treated with only mwCNT-COOH (A549 cells) | particle size (length variation) [1] | expression of Mrp-1 gene (Mrp-1) | protein expression of MRP-1 (MRP-1 protein) | time to complete excretion from cells (MDA-MB-231 cells) | necrosis / damage of tumor tissue (MDA-MB-231 tumor tissue) | volume and mass of tumors (MDA-MB-231 tumor; 0.5 mg/kg, three times I.V. injection, 21 days) | size of tumor tissue compared to control group (MDA-MB-231 tumor; large dose 5 mg/kg) | late endosome signal [2]
1 | EPI-EGF (NSDSECPLSHDGYCLHDGVCMYIEALDKYACNCVVGYIGERCQYRDLKWWELR; Epidermal growth factor epirubicin conjugate; UniProt P01133 971-1023, looked up) | lower viability | – | – | – | – | – | – | – | –
2 | COc1cccc2c1C(=O)c1c(O)c3c(c(O)c1C2=O)C[C@@](O)(C(=O)CO)C[C@@H]3O[C@H]1C[C@H](N)[C@@H](O)[C@H](C)O1 [EPI, epirubicin] | lower viability | – | – | – | – | – | – | – | –
3 | COc1cccc2c1C(=O)c1c(O)c3c(c(O)c1C2=O)C[C@@](O)(C(=O)CO)C[C@@H]3O[C@H]1C[C@H](N)[C@H](O)[C@H](C)O1 [DOX, doxorubicin] | – | 0-40 nm | decreased | weak band | 6˜12 hours | increased necrosis | no notable tumor inhibition | decreased significantly | few late endosomes were observed
